Results reported in PMC12079444, “Antagonist Targeting the Species‐Specific Fatty Acid Dehydrogenase/Isomerase FabX for Anti‐H. pylori Infection” (Advanced Science, 2025).
≈ marks a conversion by molar mass, not a printed value.

What was measured:
FabX [1] = target: T1, FabX (Helicobacter pylori, UniProt O25465); test: isothermal titration calorimetry; format: binding
T1 construct: gene HP_0773; recombinant from pQE2 vector in E. coli BL21(DE3) Rosetta, Ni-NTA, HiTrap-SP, Superdex75; FMN and [4Fe-4S] cofactors
T1 sequence (O25465 1-363): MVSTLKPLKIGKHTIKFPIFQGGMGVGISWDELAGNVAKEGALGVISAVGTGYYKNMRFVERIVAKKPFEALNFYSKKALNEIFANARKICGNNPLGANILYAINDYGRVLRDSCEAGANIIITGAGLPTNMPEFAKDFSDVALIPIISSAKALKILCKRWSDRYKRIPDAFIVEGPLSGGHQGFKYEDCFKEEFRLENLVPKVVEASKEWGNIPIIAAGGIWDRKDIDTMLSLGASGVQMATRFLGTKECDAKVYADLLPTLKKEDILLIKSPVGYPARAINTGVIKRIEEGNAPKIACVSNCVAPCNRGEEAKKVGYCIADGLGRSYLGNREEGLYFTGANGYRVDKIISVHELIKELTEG

FabX [2] = target: T1, FabX; test: FabX-FabI coupled assay, NADH absorbance […] nm; format: biochemical
FabX [3] = target: T1, FabX; test: biochemical; set-up: FabX inhibition in multienzymatic cascade coupled to FabI, NADH consumption read-out; settings: read-out: % inhibition
Excerpt: To discover small molecule inhibitors targeting FabX, we performed protein thermal shift assay (PTSA) based high‐throughput screening against an in‐house chemical library of 11000 small molecule compounds, and established a multienzymatic cascade reaction system by incorporating the enoyl acyl carrier protein reductase FabI from H. pylori into the hit validation system, where FabI catalyzes the reduction of FabX catalytic product enoyl‐ACP in the fourth step of the elongation cycle, accompanying the elimination of NADH (Figure 2A,B). […] The subcloning, expression, and purification of FabX, FabI, and ACP from H. pylori, FabK from S. pneumoniae, and FabA from E. coli were described previously.^[ [19] ^] Briefly, fabX, fabI, fabK, and fabA genes were subcloned to pQE2 vector, while the Acp gene was subcloned to pET32a vector, respectively. The proteins were expressed in BL21(DE3) Rosetta cells, purified by using Ni‐NTA affinity column, HiTrap‐SP column, GE HiLoad 16/600 Superdex75 prep grade gel‐filtration column. The peaks from the gel‐filtration column were further pooled, concentrated, and the final concentration of the proteins was quantified by the Bradford reagent purchased from Bio‐Rad.

[4] = system: T2, Helicobacter pylori BHKS 210; test: microbe, parasite or virus in culture; settings: BHKS210, read-out: MIC
T2 construct: BHKS210 (NSH57/empty vector pTM117) wild-type NSH57 with empty vector
Protocol: (§1) The sensitivity of H. pylori strains to various compounds was assessed by determining the MIC and evaluating the growth of the strains on the drug‐containing agar media. The MIC was measured using the broth microdilution assay as described previously.^[ [27] ^] Twofold serial dilutions of the test compounds were prepared using BHI broth supplemented with 10% FCS in 96‐well microtiter plates. Diluted H. pylori cultures, adjusted to a final concentration of 5 × 10^5 CFU mL^−1, were then added to each well. The cultures were incubated for 48–72 h in a microaerobic environment at 37 °C. The MIC was determined by visual inspection. H. pylori strains used in this study were cultured on brain heart infusion (BHI) broth (Oxoid, UK) or Columbia blood agar medium (Oxoid, UK) supplemented with 10% fetal calf serum (FCS). The cultures were incubated at 37 °C for 48–72 h under microaerobic environments in a double‐gas CO2 incubator (Binder, Germany). The wild‐type strains G27 and NSH57 used in this study were kindly provided by Prof. Nina R. Salama from the Fred Hutchinson Cancer Research Center (USA). Three clinical H. pylori strains (BYES129, BY924, and JIGC0009) were isolated from biopsy samples from three patients with gastritis or gastric cancer using standard protocols. Strains BHKS551 (NSH57 IR0203::fabA ΔfabX) and BHKS568 (NSH57 IR0203::fabX ΔfabX) were described previously.^[ [19] ^] The following 15 reference strains of different species were also used: Escherichia coli ATCC 25922, Klebsiella pneumoniae ATCC 35657, Pseudomonas aeruginosa PAO1, Salmonella enterica serovar Typhimurium ATCC 14028, Shigella dysenteriae Sd197, Acinetobacter baumannii ATCC 19606, Proteus mirabilis ATCC 29906, Enterobacter cloacae ATCC 13047, Stenotrophomonas maltophilia ATCC 51331, Bacillus subtilis 168, Enterococcus faecium ATCC 19434, Staphylococcus aureus ATCC 25923, Staphylococcus haemolyticus ATCC 29970, Listeria monocytogenes EGDe, and Morganella morganii ATCC 25830. These non‐Helicobacter bacterial strains were cultured as described previously.^[ [25] ^] We evaluated the antibacterial activities of selected compounds (IC 50 < 1 × 10^−6 M) against several H. pylori strains (Table S3∖, Supporting Information), particularly against strains BHKS551 and BHKS211 (the FabX overexpressed strain, hereinafter referred to as FabX^OE) to validate the on‐target effect in vivo. Note that FabX is overproduced 3.32‐fold in strain BHKS211 compared to the control strain BHKS210 carrying the empty vector (Figure S3, Supporting Information). […] This could be due to the fact that the carboxyl group of 8j readily deprotonates and acquires negative charge at physiological pH, which reduces its lipophilicity and prevents it from permeating the bacterial cell membrane. To address this issue, we employed a prodrug strategy and synthesized esters from 8j by attaching it to lipophilic alcohols (8p‐8u) or a lipophilic cation 6‐hydroxyhexyltriphenylphosphonium bromide (8v) (Figure 3). […] Compounds 8p‐8s were synthesized as shown in Scheme 1, while compounds 8t‐8v were synthesized as described in Scheme 3 . 8q was hydrolyzed with NaOH to yield 8j, which was subsequently reacted with various alcohols by Steglich esterification to produce compounds 8t‐8v.

[5] = system: T3, Helicobacter pylori BHKS 568; test: microbe, parasite or virus in culture; settings: BHKS568, read-out: MIC
T3 construct: BHKS568 (NSH57 IR0203::fabX ΔfabX) native fabX relocated to IR0203
Protocol: as §1

Helicobacter pylori G27 = system: T4, Helicobacter pylori G27; test: microbe, parasite or virus in culture; settings: G27, read-out: MIC
T4 construct: G27
Protocol: as §1

[6] = system: T5, Helicobacter pylori Hp129; test: microbe, parasite or virus in culture; settings: HP129, read-out: MIC
T5 construct: Hp129
Protocol: as §1

FabX [7] = target: T1, FabX; test: FabX-FabI coupled assay, NADH absorbance […] nm; format: biochemical; settings: read-out: FabX enzymatic activity / 10 × 10^-6 M [%]
FabX [8] = target: T1, FabX; test: X-ray crystal structure, […] Å; format: binding; settings: bound cofactor in the complex with FBX-1991

| SMILES | Kd (FabX [1]) | IC50 (FabX [2]) | inhibition at 1 µM (FabX [3]) | inhibition at 10 µM (FabX [3]) | MIC [4] | MIC [5] | MIC (Helicobacter pylori G27) | MIC [6] | inhibition at 10 µM (FabX [7]) | X-ray crystal structure, 2.00 Å (FabX [8]) |
| --- | --- | --- | --- | --- | --- | --- | --- | --- | --- | --- |
| O=C(O)c1cccc(NS(=O)(=O)c2cccnc2Nc2ccc(Cl)cc2Cl)c1 [8j, FBX-1872] | 435 ± 46 nM | 437 ± 42 nM | 65% | 100% | > 128 µg/mL | > 64 µg/mL | > 64 µg/mL | > 64 µg/mL |  |  |
| COC(=O)c1cccc(NS(=O)(=O)c2cccnc2Nc2ccc(Cl)cc2Cl)c1 [8p, FBX-1991] |  | 158 ± 30 nM | 83% | 98% | 16 µg/mL (≈ 35.4 µM) | 16 µg/mL (≈ 35.4 µM) | 16 µg/mL (≈ 35.4 µM) | 16 µg/mL (≈ 35.4 µM) |  |  |
| CCOC(=O)c1cccc(NS(=O)(=O)c2cccnc2Nc2ccc(Cl)cc2Cl)c1 [8q] |  | 552 ± 118 nM | 60% | 100% | 32 µg/mL (≈ 68.6 µM) | 16 µg/mL (≈ 34.3 µM) | 16 µg/mL (≈ 34.3 µM) | 16 µg/mL (≈ 34.3 µM) |  |  |
| CC(C)OC(=O)c1cccc(NS(=O)(=O)c2cccnc2Nc2ccc(Cl)cc2Cl)c1 [8r] |  |  |  |  | 32 µg/mL (≈ 66.6 µM) | 32 µg/mL (≈ 66.6 µM) | 64 µg/mL (≈ 133 µM) | 32 µg/mL (≈ 66.6 µM) | 37% |  |
| CC(C)(C)OC(=O)c1cccc(NS(=O)(=O)c2cccnc2Nc2ccc(Cl)cc2Cl)c1 [8s] |  |  |  |  | 32 µg/mL (≈ 64.7 µM) | 32 µg/mL (≈ 64.7 µM) | 64 µg/mL (≈ 129 µM) | 32 µg/mL (≈ 64.7 µM) | 10% |  |
| O=C(OCCCCCC[P+](c1ccccc1)(c1ccccc1)c1ccccc1)c1cccc(NS(=O)(=O)c2cccnc2Nc2ccc(Cl)cc2Cl)c1 [8v] |  |  |  |  | 16 µg/mL | 16 µg/mL | 32 µg/mL |  | 42% |  |
| Cc1cc2nc3c(=O)[nH]c(=O)nc-3n(C[C@H](O)[C@H](O)[C@H](O)COP(=O)(O)O)c2cc1C [FMN] |  |  |  |  |  |  |  |  |  | binds in the region between the FMN cofactor and the catalytic tunnel of FabX |
